Source: patent US20100316746A1, “Pesticidal Compound Mixtures” (Bayer CropScience AG, priority 2007, published 2010)

Key:
Myzus persicae = assay: Myzus persicae-Test (sprayed cabbage leaves); assay type: in vivo; conditions: 144 h, after 6 d, spray on cabbage leaves
Experimental: (§1) Solvent: 7 parts by weight of dimethylformamide Emulsifier: 2 parts by weight of alkylaryl polyglycolether
(§2) To produce a suitable preparation of active compound, 1 part by weight of active compound is mixed with the stated amount of solvent and emulsifier, and the concentrate is diluted with emulsifier-containing water to the desired concentration.
Cabbage leaves (Brassica oleracea) which are heavily infested by the green peach aphid (Myzus persicae) are treated by being sprayed with the preparation of the active compound at the desired concentration.
After the specified period of time, the mortality in % is determined. 100% means that all the aphids have been killed; 0% means that none of the aphids have been killed.

Phaedon cochleariae = assay: Phaedon cochleariae-Test (larvae, sprayed cabbage leaves); assay type: in vivo; conditions: 144 h, after 6 d, spray on cabbage leaves
Experimental: as §1, §2
Cabbage leaves (Brassica oleracea) are treated by being sprayed with the preparation of the active compound in the desired concentration and are infested with larvae of the mustard beetle (Phaedon cochleariae) as long as the leaves are still moist.
After the specified period of time, the mortality in % is determined. 100% means that all the beetle larvae have been killed; 0% means that none of the beetle larvae have been killed.

SMILES	mortality at 0.8 ppm (Myzus persicae; 0.8 ppm) [%]	mortality at 4 ppm (Phaedon cochleariae; 4 ppm) [%]	mortality at 200 ppm (Myzus persicae) [%]	mortality at 200 ppm (Phaedon cochleariae; 200 ppm) [%]
CN/C(=N\[N+](=O)[O-])NCc1cnc(Cl)s1 [Clothianidin, clothianidin]	65	55	–	–
CC(C)C1CCC(Cc2ccc(Cl)cc2)C1(O)Cn1cncn1 (centres unmarked) [Ipconazole, ipconazole]	–	–	10	5
COCC(=O)N(c1c(C)cccc1C)C(C)C(=O)OC (centres unmarked) [Metalaxyl, metalaxyl]	–	–	0	–
